# Laboratory results from US11103448B2, “Manufacture of pharmaceutical compositions” (VECTURA LIMITED, priority 2003, dated 2021).
# Experiment: Particle size distribution by Malvern particle sizer (dry powder)
# Type: physicochemical
# Experimental: The particle size distributions of these powdered materials indicate both the level of size reduction obtained by the co-milling, and the level of dispersion efficiency at varied pressures. The d(50) and d(97) plots provide a further indication of this dispersibility of the powders as a function of pressure.
# Particle size distributions of the raw materials and selected formulations were determined by Malvern particle sizer, via the Scirroco dry powder disperser.
# Twelve formulations were produced from the original powder, using the Hosokawa AS50 jet mill. Either the pure drug was passed through the mill or a blend of drug with 5% w/w of a force control agent added. The mill was used with a range of parameters. Primarily, these were injector air pressure, grinding air pressure and powder feed rate.
compound,measurement,setting,value
CN1C(=O)CC(=O)N(c2ccccc2)c2cc(Cl)ccc21 [clobozam],d(50),clobozam after co-jet milling,about 1 μm
same,d(50),clobozam before co-jet milling,about 2.6 μm
